Each block holds one molecule with its values, some of them ahead of it.
Assays:
[1] = system: house dust mites (HDM)-sensitized Beagle dogs; test: In vivo model of house dust mite induced canine allergic dermatitis; conditions: for reduction rates of edema / reduction rates of erythema: range over time points
Description: Therein, HDM-sensitization consisted of a series of subcutaneous injections of HDM antigen (10 μg, Greer Laboratories, Lenoir, N.C., USA) and Alhydrogel® (0.2 mL, InvivoGen, San Diego, Calif. 921221, USA) as adjuvant in time intervals of approximately two weeks. The sensitization process was monitored and confirmed by intradermal skin testing. […] The control group was not treated while the group treated with the compound according to formula (IIIa) supra was orally treated with gelatin capsules containing the compound according to formula (IIIa) supra and Ac-Di-Sol; the group receiving Apoquel®, received the commercially available tablets. […] Plasma samples were analyzed to determine exposure to the compound in relationship to the clinical evaluations. […] This is illustrated by Tables 1 and 2, and by FIGS. 1 and 2.

SYK = SYK (Canis lupus familiaris, UniProt A0A8I3P3G0); test: Radiometric protein kinase assay, dog SYK; assay type: biochemical, Dog (Canis lupus familiaris); conditions: 1 μM ATP
Sequence of SYK (A0A8I3P3G0 1-633): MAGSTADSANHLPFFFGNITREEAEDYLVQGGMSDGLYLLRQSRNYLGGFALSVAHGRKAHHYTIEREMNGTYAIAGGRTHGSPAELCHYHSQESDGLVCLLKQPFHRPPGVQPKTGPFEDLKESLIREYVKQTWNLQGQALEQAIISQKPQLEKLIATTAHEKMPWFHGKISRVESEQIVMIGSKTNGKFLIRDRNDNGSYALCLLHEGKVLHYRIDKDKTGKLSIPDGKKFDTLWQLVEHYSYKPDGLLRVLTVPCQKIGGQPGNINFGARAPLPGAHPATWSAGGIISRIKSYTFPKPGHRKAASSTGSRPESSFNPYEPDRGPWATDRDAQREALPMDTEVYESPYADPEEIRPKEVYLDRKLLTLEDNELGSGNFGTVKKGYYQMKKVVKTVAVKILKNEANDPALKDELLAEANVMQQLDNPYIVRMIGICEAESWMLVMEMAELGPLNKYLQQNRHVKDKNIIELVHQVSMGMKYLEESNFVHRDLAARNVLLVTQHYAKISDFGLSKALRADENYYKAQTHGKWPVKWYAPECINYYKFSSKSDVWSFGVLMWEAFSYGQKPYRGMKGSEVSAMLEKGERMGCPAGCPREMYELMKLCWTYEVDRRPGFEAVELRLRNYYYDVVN
Description: A radiometric protein kinase assay was used for measuring the kinase activity of the Dog (Canis lupus familiaris) IRAK4, JAK1, JAK2, SYK kinases. All kinase assays were performed in 96-well FlashPlates in a 50 μl reaction volume. […] The reaction was stopped with 50 μl of 2% (v/v) H3PO4, plates were aspirated and washed two times with 200 μl 0.9% (w/v) NaCl. Incorporation of 33Pi was determined with a microplate scintillation counter. IC50 calculation: the residual activity (in %) for each well of a particular plate was calculated by using the following formula: Res. Activity (%)=100×[(cpm of compound−low control)/(high control−low control)] […] The fitting method used was a least-squares fit. Materials: The dog (Canis lupus familiaris) protein kinases IRAK4, JAK1, JAK2 and SYK had been recombinantly expressed in Sf9 insect cells and purified by affinity chromatography.

IRAK4 = IRAK4 (Canis lupus familiaris, UniProt A0A8I3S726); test: Radiometric protein kinase assay, dog IRAK4; assay type: biochemical, Dog (Canis lupus familiaris); conditions: 10 μM ATP
Sequence of IRAK4 (A0A8I3S726 1-460): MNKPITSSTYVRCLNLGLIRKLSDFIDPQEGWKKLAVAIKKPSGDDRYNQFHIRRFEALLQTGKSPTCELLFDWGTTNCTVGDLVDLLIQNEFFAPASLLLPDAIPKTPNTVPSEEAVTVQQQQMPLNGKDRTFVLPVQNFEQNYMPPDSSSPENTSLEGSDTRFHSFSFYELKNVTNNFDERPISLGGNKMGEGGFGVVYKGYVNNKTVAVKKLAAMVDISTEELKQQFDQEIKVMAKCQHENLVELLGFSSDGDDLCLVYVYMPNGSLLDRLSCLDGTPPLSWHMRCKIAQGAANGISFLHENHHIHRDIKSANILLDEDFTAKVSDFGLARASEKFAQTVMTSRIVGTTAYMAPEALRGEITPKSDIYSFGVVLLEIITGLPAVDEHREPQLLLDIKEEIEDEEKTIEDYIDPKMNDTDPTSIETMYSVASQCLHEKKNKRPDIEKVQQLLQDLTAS
Description: (§1) A radiometric protein kinase assay was used for measuring the kinase activity of the Dog (Canis lupus familiaris) IRAK4, JAK1, JAK2, SYK kinases. All kinase assays were performed in 96-well FlashPlates in a 50 μl reaction volume. The reaction cocktail was pipetted in four steps in the following order: • 20 μl of assay buffer (standard buffer) • […] of test compound (in 10% DMSO) • 20 μl enzyme/substrate mix • […] (in H2O) The reaction cocktails were incubated at 30° C. for 60 minutes. The reaction was stopped with 50 μl of 2% (v/v) H3PO4, plates were aspirated and washed two times with 200 μl 0.9% (w/v) NaCl. Incorporation of 33Pi was determined with a microplate scintillation counter.
(§2) IC50 calculation: the residual activity (in %) for each well of a particular plate was calculated by using the following formula: Res. Activity (%)=100×[(cpm of compound−low control)/(high control−low control)]
(§3) The residual activities for each concentration and the compound IC50 values were calculated using Quattro Workflow V3.1.1 (Quattro Research GmbH, Munich, Germany; www.quattro-research.com). The fitting model for the IC50 determinations was “Sigmoidal response (variable slope)” with parameters “top” fixed at 100% and “bottom” at 0%. The fitting method used was a least-squares fit. […]

JAK2 = JAK2 (Canis lupus familiaris, UniProt A0A8C0QV87); test: Radiometric protein kinase assay, dog JAK2; assay type: biochemical, Dog (Canis lupus familiaris); conditions: 0.3 μM ATP
Sequence of JAK2 (A0A8C0QV87 1-1132): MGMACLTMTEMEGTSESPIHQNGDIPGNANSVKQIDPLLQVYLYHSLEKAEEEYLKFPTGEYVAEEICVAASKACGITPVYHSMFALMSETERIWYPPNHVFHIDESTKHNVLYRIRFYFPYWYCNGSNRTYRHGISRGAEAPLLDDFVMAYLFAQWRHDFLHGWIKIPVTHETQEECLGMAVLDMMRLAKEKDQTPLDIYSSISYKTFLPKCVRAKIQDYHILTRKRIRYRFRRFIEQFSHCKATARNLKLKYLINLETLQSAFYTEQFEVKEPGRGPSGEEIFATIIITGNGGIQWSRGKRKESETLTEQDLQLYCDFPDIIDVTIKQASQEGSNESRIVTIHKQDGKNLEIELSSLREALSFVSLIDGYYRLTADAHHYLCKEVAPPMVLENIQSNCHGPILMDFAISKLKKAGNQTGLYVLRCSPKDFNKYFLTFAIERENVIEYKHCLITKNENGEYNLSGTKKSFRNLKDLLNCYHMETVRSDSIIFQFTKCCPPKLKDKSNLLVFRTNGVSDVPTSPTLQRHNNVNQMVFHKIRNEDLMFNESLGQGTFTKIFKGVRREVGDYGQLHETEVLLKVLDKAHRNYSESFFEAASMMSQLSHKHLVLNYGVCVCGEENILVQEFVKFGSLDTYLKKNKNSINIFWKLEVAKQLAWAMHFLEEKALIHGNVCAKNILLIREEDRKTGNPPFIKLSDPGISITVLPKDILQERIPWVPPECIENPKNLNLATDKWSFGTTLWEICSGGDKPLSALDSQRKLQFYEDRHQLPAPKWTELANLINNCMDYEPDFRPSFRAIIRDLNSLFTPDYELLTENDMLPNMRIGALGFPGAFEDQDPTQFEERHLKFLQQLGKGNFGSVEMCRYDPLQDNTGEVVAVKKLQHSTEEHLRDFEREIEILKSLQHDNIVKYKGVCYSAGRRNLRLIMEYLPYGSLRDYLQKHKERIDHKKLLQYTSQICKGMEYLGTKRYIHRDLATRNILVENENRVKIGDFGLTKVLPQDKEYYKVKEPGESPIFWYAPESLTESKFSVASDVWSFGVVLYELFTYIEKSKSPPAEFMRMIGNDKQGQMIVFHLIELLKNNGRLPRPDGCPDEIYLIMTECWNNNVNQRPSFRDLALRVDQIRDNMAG
Description: as §1, §2, §3

JAK1 = JAK1 (Canis lupus familiaris, UniProt A0A8I3RS40); test: Radiometric protein kinase assay, dog JAK1; assay type: biochemical, Dog (Canis lupus familiaris); conditions: 3 μM ATP
Sequence of JAK1 (A0A8I3RS40 1-1159): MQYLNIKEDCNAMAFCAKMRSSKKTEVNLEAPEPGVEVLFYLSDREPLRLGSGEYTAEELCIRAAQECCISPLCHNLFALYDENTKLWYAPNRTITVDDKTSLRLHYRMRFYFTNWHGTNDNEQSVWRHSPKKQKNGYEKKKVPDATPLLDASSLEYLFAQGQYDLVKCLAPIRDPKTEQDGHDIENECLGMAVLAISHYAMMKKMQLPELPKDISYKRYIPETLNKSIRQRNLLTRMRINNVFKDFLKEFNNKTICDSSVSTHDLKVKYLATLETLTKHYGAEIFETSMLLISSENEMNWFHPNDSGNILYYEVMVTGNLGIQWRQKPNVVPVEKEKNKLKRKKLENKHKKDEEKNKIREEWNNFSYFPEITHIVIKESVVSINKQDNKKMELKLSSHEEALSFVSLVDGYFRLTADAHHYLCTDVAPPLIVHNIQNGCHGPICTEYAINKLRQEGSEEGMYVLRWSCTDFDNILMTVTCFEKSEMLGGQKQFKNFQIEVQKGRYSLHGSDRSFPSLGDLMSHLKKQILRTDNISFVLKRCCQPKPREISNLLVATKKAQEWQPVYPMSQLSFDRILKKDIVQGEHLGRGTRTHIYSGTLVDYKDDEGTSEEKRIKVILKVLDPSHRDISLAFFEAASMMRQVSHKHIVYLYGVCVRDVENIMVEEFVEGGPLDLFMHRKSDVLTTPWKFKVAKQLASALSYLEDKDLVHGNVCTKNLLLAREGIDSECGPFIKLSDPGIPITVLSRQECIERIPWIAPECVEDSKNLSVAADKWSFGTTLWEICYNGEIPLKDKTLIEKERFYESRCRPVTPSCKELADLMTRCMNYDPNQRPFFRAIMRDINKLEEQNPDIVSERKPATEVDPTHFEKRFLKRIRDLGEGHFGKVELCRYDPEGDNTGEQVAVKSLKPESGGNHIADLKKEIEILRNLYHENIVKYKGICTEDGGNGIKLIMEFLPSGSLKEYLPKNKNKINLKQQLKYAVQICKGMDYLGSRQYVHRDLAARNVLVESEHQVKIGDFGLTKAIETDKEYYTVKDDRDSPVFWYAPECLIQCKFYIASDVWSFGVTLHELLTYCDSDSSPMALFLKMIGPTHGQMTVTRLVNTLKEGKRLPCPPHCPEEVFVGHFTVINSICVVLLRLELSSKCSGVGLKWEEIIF
Description: as §1, §2, §3

[2] = 0.8 mg/kg BID oral, 0.5 h post-challenge
[3] = 0.8 mg/kg BID oral, 1 h post-challenge
[4] = 0.8 mg/kg BID oral, 4 h post-challenge
[5] = 0.8 mg/kg BID oral, 6 h post-challenge
[6] = 0.8 mg/kg BID oral, 24 h post-challenge
[7] = 0.8 mg/kg BID oral, 48 h post-challenge
[8] = 2 mg/kg BID oral, 0.5 h post-challenge
[9] = 2 mg/kg BID oral, 1 h post-challenge
[10] = 2 mg/kg BID oral, 4 h post-challenge
[11] = 2 mg/kg BID oral, 6 h post-challenge
[12] = 2 mg/kg BID oral, 24 h post-challenge
[13] = 2 mg/kg BID oral, 48 h post-challenge

SMILES: Cn1cc(-c2nc(N[C@@H]3CCCC[C@@H]3N)c(F)c3c2C(=O)NC3)cn1 [IIIa, 6-((1R,2S)-2-aminocyclohexylamino)-7-fluoro-4-(1-methyl-1H-pyrazol-4-yl)-1H-pyrrolo[3,4-c]pyridine-3(2H)-one]
Percentage of reduction of Edema (compared to untreated control, median values) [1, 2]: 41%
Percentage of reduction of Erythema (compared to untreated control, median values) [1, 2]: 33%
Percentage of reduction of Edema (compared to untreated control, median values) [1, 3]: 52%
Percentage of reduction of Erythema (compared to untreated control, median values) [1, 3]: 63%
Percentage of reduction of Edema (compared to untreated control, median values) [1, 4]: 39%
Percentage of reduction of Erythema (compared to untreated control, median values) [1, 4]: 30%
Percentage of reduction of Edema (compared to untreated control, median values) [1, 5]: 49%
Percentage of reduction of Erythema (compared to untreated control, median values) [1, 5]: 28%
Percentage of reduction of Edema (compared to untreated control, median values) [1, 6]: 41%
Percentage of reduction of Erythema (compared to untreated control, median values) [1, 6]: 43%
Percentage of reduction of Edema (compared to untreated control, median values) [1, 7]: 100%
Percentage of reduction of Erythema (compared to untreated control, median values) [1, 7]: 100%
reduction rates of edema ([1]; 0.8 mg/kg BID): 39-100%
reduction rates of erythema ([1]; 0.8 mg/kg BID): 28-100%
comparative reduction of edema in the CAD model (% compared the control group), up to ([1]; 2 mg/kg BID): > 75%
comparative reduction of erythema in the CAD model (% compared the control group), up to ([1]; 2 mg/kg BID): > 75%
Percentage of reduction of Edema (compared to untreated control, median values) [1, 8]: 76%
Percentage of reduction of Erythema (compared to untreated control, median values) [1, 8]: 74%
Percentage of reduction of Edema (compared to untreated control, median values) [1, 9]: 81%
Percentage of reduction of Erythema (compared to untreated control, median values) [1, 9]: 76%
Percentage of reduction of Edema (compared to untreated control, median values) [1, 10]: 75%
Percentage of reduction of Erythema (compared to untreated control, median values) [1, 10]: 75%
Percentage of reduction of Edema (compared to untreated control, median values) [1, 11]: 79%
Percentage of reduction of Erythema (compared to untreated control, median values) [1, 11]: 76%
Percentage of reduction of Edema (compared to untreated control, median values) [1, 12]: 75%
Percentage of reduction of Erythema (compared to untreated control, median values) [1, 12]: 69%
Percentage of reduction of Edema (compared to untreated control, median values) [1, 13]: 100%
Percentage of reduction of Erythema (compared to untreated control, median values) [1, 13]: 100%
reduction rates of edema ([1]; 2 mg/kg BID): 75-100%
reduction rates of erythema ([1]; 2 mg/kg BID): 69-100%
effect on clinical signs of CAD (edema and erythema) ([1]; House Dust Mite model, oral BID): significantly reduced

IC50 (SYK): 323 nM
IC50 (IRAK4): 10.2 nM
IC50 (JAK2): 624 nM
IC50 (JAK1): 466 nM
SMILES: Cn1cc(-c2nc(N[C@@H]3CCCC[C@@H]3N)c(Cl)c3c2C(=O)NC3)cn1 [IVa, 6-((1R,2S)-2-Aminocyclohexylamino)-7-chloro-4-(1-methyl-1H-pyrazol-4-yl)-1H-pyrrolo[3,4-c]pyridin-3(2H)-one]

Source: patent US11077111B2, “Use of fused heteroaromatic pyrrolidones for treatment and prevention of diseases in animals” (Bayer Animal Health GmbH, priority 2017, dated 2021)
